Laboratory results taken from patent US20180149606A1, “XENON BASED DRUG PROTEIN BINDING ASSAY” (priority 2016, published 2018).

How the values were obtained:
[1] = biological target: T1, albumin (Bos taurus, UniProt P02769); design: other: bovine serum albumin whenever possible, close to 25 degrees Celsius; highest; settings: bovine serum albumin whenever possible, close to 25 degrees Celsius; highest affinity site; cited from earlier work
[2] = biological target: T1, albumin; assay: Xenon T2 relaxation measurement of drug binding to albumin (Tables 1 and 2); design: T2: unit not given here; settings: 10 μM albumin, 9.4 T
Source text: Hyperpolarized ^129Xe was generated in a rubidium cell hyperpolarizer, and bubbled into the solution.
Hyperpolarized ^129Xe was magnetized in a rubidium cell hyperpolarizer, and bubbled into the solution.
Target sequence in this assay (P02769 25-607): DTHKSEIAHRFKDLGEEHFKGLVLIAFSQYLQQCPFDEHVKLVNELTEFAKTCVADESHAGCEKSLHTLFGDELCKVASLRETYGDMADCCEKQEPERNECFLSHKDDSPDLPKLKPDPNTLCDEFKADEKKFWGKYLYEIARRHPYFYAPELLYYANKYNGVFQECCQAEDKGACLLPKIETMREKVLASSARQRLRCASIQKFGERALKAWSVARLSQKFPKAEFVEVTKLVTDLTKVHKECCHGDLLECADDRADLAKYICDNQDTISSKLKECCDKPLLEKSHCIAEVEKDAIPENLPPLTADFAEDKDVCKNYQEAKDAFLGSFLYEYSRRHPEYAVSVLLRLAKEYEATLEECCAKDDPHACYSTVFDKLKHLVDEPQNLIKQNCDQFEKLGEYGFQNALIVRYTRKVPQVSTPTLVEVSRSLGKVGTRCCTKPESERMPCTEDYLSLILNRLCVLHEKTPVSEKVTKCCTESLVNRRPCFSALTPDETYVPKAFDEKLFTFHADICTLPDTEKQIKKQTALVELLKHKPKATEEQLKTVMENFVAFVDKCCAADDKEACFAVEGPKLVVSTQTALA

[3] = biological target: bovine serum albumin (Bos taurus, UniProt P02769); assay: Drug titration of xenon T2 in 10 μM fatty acid free bovine serum albumin; type: binding; settings: for effect on the xenon T2 of albumin: titration up to 1 mM drug, 9.4 T, 25 degrees Celsius
Chain of bovine serum albumin (P02769 25-607): as above
Method: The following experiments were performed with fatty acid free bovine serum albumin. It is important to note whether the albumin one uses contains fatty acids both because the fats will alter the binding affinity of a drug and also because they alter the relaxivity of albumin. The drug titrations were performed by preparing a 10 μM solution of bovine serum albumin into which aliquots of high concentration drug solutions were added. Most drugs, as well as all protein solutions, were dissolved in 1×PBS buffer. It is important to keep the pH of the solution constant when studying albumin because that protein has many different pH dependent conformations.
All solutions were made by dissolving the drugs in 1×PBS, with the exception of the tenoxicam solution. The T2 times of solutions containing high concentrations of drugs were measured. […] For the tenoxicam solution, about 400 μL of DMSO was added to a 10 mL solution of 1×PBS.
T2 times were measured using a standard CPMG pulse sequence with 100 ms long echo spacings. All experiments were performed at 9.4 Tesla using hyperpolarized xenon. This hyperpolarized xenon was prepared using a homebuilt spin exchange optical pumping based polarizer. The protein solution was attached to the polarizer's flow system and the pressurized to 60 psi. Xenon was bubbled into the protein solution at a rate of about 0.1 standard liters per minute. The gas mixture used contained 2% xenon, with the rest of the gases being helium and nitrogen. All experiments were performed at 25 degrees Celsius.
All protein solutions required the addition of an antifoaming agent in order to prevent the xenon from forcing the sample out of the NMR tube. […] 1-octanol was used as the antifoaming agent in this experiment. The concentration of 1-octanol used was 5 μL of alcohol per 10 mL of solution.

SMILES: CN1C(C(=O)Nc2ccccn2)=C(O)c2sccc2S1(=O)=O [Tenoxicam, tenoxicam]
- Highest Binding Affinity log10(Ka) [1]: 5.4

SMILES: Cc1onc(-c2c(F)cccc2Cl)c1C(=O)N[C@@H]1C(=O)N2[C@@H]1SC(C)(C)[C@@H]2C(=O)O [Flucloxacillin, flucloxacillin]
- T2 ([2]; 70 μM flucloxacillin): 0.91 ± 0.04
- T2 ([2]; 200 μM flucloxacillin): 0.99 ± 0.04
- T2 ([2]; 250 μM flucloxacillin): 1.53 ± 0.05
- T2 ([2]; 450 μM flucloxacillin): 0.97 ± 0.03
- T2 ([2]; 2000 μM flucloxacillin): 0.73 ± 0.04
- effect on the xenon T2 of albumin, repeated titration ([3]; higher concentrations of drug (beyond 1 mM), 10 μM BSA): no effect
- effect on the xenon T2 of albumin ([3]; 10 μM BSA): much weaker effect
- Highest Binding Affinity log10(Ka) [1]: 4.6

SMILES: CCCCCCCC/C=C\CCCCCCCC(=O)[O-].[Na+] [Sodium Oleate, sodium oleate]
- increase of xenon T2 ([3]; three times as much sodium oleate as albumin, 10 μM albumin): 3 s
- effect on the xenon T2 of albumin ([3]; 10 μM BSA): increased
- Highest Binding Affinity log10(Ka) [1]: 8.0

SMILES: Cn1c(=O)c2c(ncn2C)n(C)c1=O [Caffeine, caffeine]
- Xenon relaxation time, T2 ([2]; 16 μM caffeine): 0.54 ± 0.04 s
- Xenon relaxation time, T2 ([2]; 43 μM caffeine): 0.47 ± 0.04 s
- Xenon relaxation time, T2 ([2]; 56 μM caffeine): 0.63 ± 0.04 s
- Xenon relaxation time, T2 ([2]; 100 μM caffeine): 0.69 ± 0.03 s
- Xenon relaxation time, T2 ([2]; 500 μM caffeine): 0.51 ± 0.03 s
- Xenon relaxation time, T2 ([2]; 5000 μM caffeine): 0.67 ± 0.04 s
- Xenon relaxation time, T2 ([2]; 80000 μM caffeine): 1.07 ± 0.03 s
- Highest Binding Affinity log10(Ka) [1]: 4.3
